Key:
Experiment in all cases: normalised viability (% of control), CellTiter-Blue; higher = more viable cells (about 100 = DMSO control)
Conditions in all cases: incubation time: 72 h
BT-549 = test system: BT-549
Outline: (§1)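 After 72 h on compound-loaded 384-well plates, breast cancer cell lines received 2.5 µl CellTiter-Blue reagent for 2 h at 37 °C. Fluorescence at 560/590 nm was scaled per plate so that vehicle was 100 and a positive kill control was 0. The value stands for normalised viability at a single listed concentration of the series.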

BT-474 = test system: BT-474
Outline: as §1

SK-BR-3 = test system: SK-BR-3
Outline: as §1

Hs578T [1] = test system: Hs578T
Outline: as §1

HCC1143 = test system: HCC1143
Outline: as §1

MDA-MB-468 [2] = test system: MDA-MB-468
Outline: as §1

HCC1599 [3] = test system: HCC1599
Outline: as §1

CAL-148 [4] = test system: CAL-148
Outline: as §1

MDA-MB-453 = test system: MDA-MB-453
Outline: as §1

CAL-85-1 [5] = test system: CAL-85-1
Outline: as §1

HDQ-P1 [6] = test system: HDQ-P1
Outline: as §1

HCC1937 = test system: HCC1937
Outline: as §1

MFM-223 = test system: MFM-223
Outline: as §1

DU-4475 = test system: DU-4475
Outline: as §1

CAL-51 [7] = test system: CAL-51
Outline: as §1

CAL-120 [8] = test system: CAL-120
Outline: as §1

MDA-MB-231 = test system: MDA-MB-231
Outline: as §1

MDA-MB-436 [9] = test system: MDA-MB-436
Outline: as §1

Hs578T [10] = test system: Hs578T; remark: listed apart in the source
Outline: as §1

MDA-MB-468 [11] = test system: MDA-MB-468; remark: listed apart in the source
Outline: as §1

HCC1599 [12] = test system: HCC1599; remark: listed apart in the source
Outline: as §1

CAL-148 [13] = test system: CAL-148; remark: listed apart in the source
Outline: as §1

CAL-85-1 [14] = test system: CAL-85-1; remark: listed apart in the source
Outline: as §1

HDQ-P1 [15] = test system: HDQ-P1; remark: listed apart in the source
Outline: as §1

CAL-51 [16] = test system: CAL-51; remark: listed apart in the source
Outline: as §1

CAL-120 [17] = test system: CAL-120; remark: listed apart in the source
Outline: as §1

MDA-MB-436 [18] = test system: MDA-MB-436; remark: listed apart in the source
Outline: as §1

Nc1nc(=O)c2c([nH]1)NCC(CNc1ccc(C(=O)N[C@@H](CCC(=O)O)C(=O)O)cc1)N2C=O (mixture of isomers) [Folinic acid]
Conditions | normalised viability [%]
BT-474, 0.99 nM | 106
BT-474, 99 nM | 99.6
BT-474, 990 nM | 116
BT-549, 0.99 nM | 100
BT-549, 99 nM | 105
BT-549, 990 nM | 102
CAL-51 [7], 0.297 nM | 94
CAL-51 [7], 2.97 nM | 92
CAL-51 [7], 9.9 nM | 97.6
CAL-51 [16], 0.99 nM | 98.4
CAL-85-1 [5], 0.297 nM | 96.2
CAL-85-1 [5], 2.97 nM | 93.9
CAL-85-1 [5], 9.9 nM | 99.8
CAL-85-1 [14], 0.99 nM | 106
CAL-120 [8], 0.99 nM | 105
CAL-120 [8], 99 nM | 110
CAL-120 [8], 990 nM | 108
CAL-120 [17], 9.9 nM | 111
CAL-148 [4], 0.297 nM | 92.2
CAL-148 [4], 2.97 nM | 88.9
CAL-148 [4], 9.9 nM | 96.6
CAL-148 [13], 0.99 nM | 88.3
DU-4475, 0.297 nM | 110
DU-4475, 2.97 nM | 85
DU-4475, 9.9 nM | 109
HCC1143, 0.99 nM | 92.7
HCC1143, 99 nM | 95.8
HCC1143, 990 nM | 92
HCC1599 [3], 0.99 nM | 111
HCC1599 [3], 99 nM | 106
HCC1599 [3], 990 nM | 118
HCC1599 [12], 9.9 nM | 108
HCC1937, 0.99 nM | 121
HCC1937, 99 nM | 87.8
HCC1937, 990 nM | 107
HDQ-P1 [6], 0.297 nM | 122
HDQ-P1 [6], 2.97 nM | 115
HDQ-P1 [6], 9.9 nM | 92.2
HDQ-P1 [15], 0.99 nM | 140
Hs578T [1], 0.99 nM | 92.2
Hs578T [1], 99 nM | 102
Hs578T [1], 990 nM | 96.3
Hs578T [10], 9.9 nM | 96
MDA-MB-231, 0.99 nM | 100
MDA-MB-231, 99 nM | 123
MDA-MB-231, 990 nM | 118
MDA-MB-436 [9], 0.99 nM | 123
MDA-MB-436 [9], 99 nM | 112
MDA-MB-436 [9], 990 nM | 123
MDA-MB-436 [18], 9.9 nM | 128
MDA-MB-453, 0.297 nM | 110
MDA-MB-453, 2.97 nM | 109
MDA-MB-453, 9.9 nM | 103
MDA-MB-468 [2], 0.99 nM | 115
MDA-MB-468 [2], 99 nM | 107
MDA-MB-468 [2], 990 nM | 115
MDA-MB-468 [11], 9.9 nM | 119
MFM-223, 0.99 nM | 106
MFM-223, 99 nM | 107
MFM-223, 990 nM | 94.4
SK-BR-3, 0.99 nM | 95.3
SK-BR-3, 99 nM | 98.6
SK-BR-3, 990 nM | 116

O=C(NC[C@H](O)CO)c1ccncc1Nc1ccc(I)cc1F
Conditions | normalised viability [%]
BT-474, 10 nM | 107
BT-474, 1000 nM | 104
BT-474, 10000 nM | 114
BT-549, 10 nM | 93.2
BT-549, 1000 nM | 88.6
BT-549, 10000 nM | 88
CAL-51 [7], 3 nM | 111
CAL-51 [7], 30 nM | 88.5
CAL-51 [7], 100 nM | 85.8
CAL-51 [16], 10 nM | 99.2
CAL-85-1 [5], 3 nM | 79.1
CAL-85-1 [5], 30 nM | 83.4
CAL-85-1 [5], 100 nM | 85.7
CAL-85-1 [14], 10 nM | 90.6
CAL-120 [8], 10 nM | 85.1
CAL-120 [8], 1000 nM | 55.7
CAL-120 [8], 10000 nM | 43.1
CAL-120 [17], 100 nM | 85.1
CAL-148 [4], 3 nM | 86
CAL-148 [4], 30 nM | 86.4
CAL-148 [4], 100 nM | 82.7
CAL-148 [13], 10 nM | 80.3
DU-4475, 3 nM | 79.2
DU-4475, 30 nM | 16.4
DU-4475, 100 nM | 1.76
HCC1143, 10 nM | 69.5
HCC1143, 1000 nM | 55.4
HCC1143, 10000 nM | 50.1
HCC1599 [3], 10 nM | 108
HCC1599 [3], 1000 nM | 78
HCC1599 [3], 10000 nM | 67.2
HCC1599 [12], 100 nM | 101
HCC1937, 10 nM | 94.6
HCC1937, 1000 nM | 87.8
HCC1937, 10000 nM | 79.8
HDQ-P1 [6], 3 nM | 107
HDQ-P1 [6], 30 nM | 97.8
HDQ-P1 [6], 100 nM | 91.9
HDQ-P1 [15], 10 nM | 97.9
Hs578T [1], 10 nM | 114
Hs578T [1], 1000 nM | 95.3
Hs578T [1], 10000 nM | 67.4
Hs578T [10], 100 nM | 79.8
MDA-MB-231, 10 nM | 75.5
MDA-MB-231, 1000 nM | 31.7
MDA-MB-231, 10000 nM | 31.4
MDA-MB-436 [9], 10 nM | 92.2
MDA-MB-436 [9], 1000 nM | 85.6
MDA-MB-436 [9], 10000 nM | 79.2
MDA-MB-436 [18], 100 nM | 114
MDA-MB-453, 3 nM | 99.6
MDA-MB-453, 30 nM | 89.2
MDA-MB-453, 100 nM | 90.9
MDA-MB-468 [2], 10 nM | 97.7
MDA-MB-468 [2], 1000 nM | 85.7
MDA-MB-468 [2], 10000 nM | 60.7
MDA-MB-468 [11], 100 nM | 87.3
MFM-223, 10 nM | 90.2
MFM-223, 1000 nM | 86
MFM-223, 10000 nM | 52.2
SK-BR-3, 10 nM | 98.4
SK-BR-3, 1000 nM | 102
SK-BR-3, 10000 nM | 55.5
